Key:
wheat [1] = test: Test A postemergence; type: in vivo, Triticum aestivum
In short: (§1)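 Greenhouse test in loam soil/sand blend; compounds formulated in non-phytotoxic solvent with surfactant, applied as preemergence directed soil spray or postemergence to plants 2–10 cm tall at one- to two-leaf stage. Injury rated visually versus untreated controls after approximately 10 days on a 0 (no effect) to 100 (complete control) scale.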

nutsedge, yellow = test: Test C postemergence; type: in vivo, Cyperus esculentus; conditions: for Plant response rating (scale of 0 to 100 where 0 is no effect and 100 is complete control), Nutsedge, Yellow: Postemergence, 31 g ai/ha, visually evaluated after 13 to 15 days; for Nutsedge, Yellow plant response rating / Plant response rating, Nutsedge, Yellow: postemergence; for Nutsedge, Yellow plant response rating: 62 g ai/ha, scale 0 to 100
In short: (§2)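 Scores of 0 (no effect) to 100 (complete control) were assigned by eye after 13–15 days, comparing treated pots with controls. Soil-applied (preemergence) treatments went onto seeds in loam and sand; foliar (postemergence) treatments onto 1- to 4-leaf plants in peat medium.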

velvetleaf = test: Test C postemergence; type: in vivo, Abutilon theophrasti; conditions: for Plant response rating (scale of 0 to 100 where 0 is no effect and 100 is complete control), Velvetleaf: Postemergence, 31 g ai/ha, visually evaluated after 13 to 15 days; for Velvetleaf plant response rating / Plant response rating, Velvetleaf: postemergence; for Velvetleaf plant response rating: scale 0 to 100
In short: as §2

johnsongrass = test: Test C preemergence; type: in vivo, Sorghum halepense; conditions: for Plant response rating (scale of 0 to 100), Johnsongrass: Preemergence; for Johnsongrass plant response rating / Plant response rating, Johnsongrass: preemergence; for Plant response rating, Johnsongrass: scale 0 to 100, 0 = no effect, 100 = complete control
In short: as §2

rice = test: Test B flood; type: in vivo, Oryza sativa; conditions: 250 g ai/ha, visual rating on 0 to 100 scale (0 no effect, 100 complete control), 13 to 15 days
In short: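 2-leaf plants; pots flooded 3 cm over soil; compound added to paddy water, depth kept constant. Greenhouse 13–15 d. Visual rating vs controls, 0–100 scale (100 = complete control); dash = no result.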

blackgrass = test: Test C postemergence; type: in vivo, Alopecurus myosuroides; conditions: for Plant response rating (scale of 0 to 100 where 0 is no effect and 100 is complete control), Blackgrass: Postemergence, 31 g ai/ha, visually evaluated after 13 to 15 days; for Blackgrass plant response rating / Plant response rating, Blackgrass: postemergence; for Blackgrass plant response rating: 62 g ai/ha, scale 0 to 100
In short: as §2

foxtail, giant [2] = test: Test A preemergence; type: in vivo, Setaria faberii; conditions: preemergence; for Foxtail, Giant plant response rating (0 to 100 scale): visual injury approx. 10 days after treatment
In short: as §1

wheat [3] = test: Test A preemergence; type: in vivo, Triticum aestivum; conditions: preemergence; for Wheat plant response rating (0 to 100 scale): visual injury approx. 10 days after treatment
In short: as §1

barnyardgrass = test: Test C postemergence; type: in vivo, Echinochloa crus-galli; conditions: for Plant response rating (scale of 0 to 100 where 0 is no effect and 100 is complete control), Barnyardgrass: Postemergence, 31 g ai/ha, visually evaluated after 13 to 15 days; for Barnyardgrass plant response rating / Plant response rating, Barnyardgrass: postemergence; for Barnyardgrass plant response rating: 62 g ai/ha, scale 0 to 100
In short: as §2

crabgrass, large = test: Test C postemergence; type: in vivo, Digitaria sanguinalis; conditions: for Plant response rating (scale of 0 to 100 where 0 is no effect and 100 is complete control), Crabgrass, Large: Postemergence, 31 g ai/ha, visually evaluated after 13 to 15 days; for Crabgrass, Large plant response rating / Plant response rating, Crabgrass, Large: postemergence; for Crabgrass, Large plant response rating: 62 g ai/ha, scale 0 to 100
In short: as §2

pigweed = test: Test A preemergence; type: in vivo, Amaranthus retroflexus; conditions: preemergence; for Pigweed plant response rating (0 to 100 scale): visual injury approx. 10 days after treatment
In short: as §1

foxtail, giant [4] = test: Test C preemergence; type: in vivo, Setaria faberii; conditions: for Plant response rating (scale of 0 to 100), Foxtail, Giant: Preemergence; for Foxtail, Giant plant response rating / Plant response rating, Foxtail, Giant: preemergence; for Plant response rating, Foxtail, Giant: scale 0 to 100, 0 = no effect, 100 = complete control
In short: as §2

lambsquarters = test: Test C preemergence; type: in vivo, Chenopodium album; conditions: for Lambsquarters plant response rating: preemergence
In short: as §2

[5] = postemergence, 125 g ai/ha, about 10 days, visual rating on 0 to 100 scale (0 no effect, 100 complete control)
[6] = 250 g ai/ha, scale 0 to 100 (0 no effect, 100 complete control)
[7] = 125 g ai/ha, scale 0 to 100, 0 no effect, 100 complete control
[8] = 31 g ai/ha, visual rating, scale 0 to 100 (0 no effect, 100 complete control), 13 to 15 days
[9] = 62 g ai/ha, scale 0 to 100 (0 no effect, 100 complete control), 13 to 15 days
[10] = 125 g ai/ha, scale 0 to 100, 0 is no effect, 100 is complete control
[11] = 125 g ai/ha, visual injury, 0 to 100 scale, approx. 10 days
[12] = 500 g ai/ha, visual injury after approx. 10 days, 0 to 100 scale (0 no effect, 100 complete control)
[13] = Postemergence, 500 g ai/ha, 0 to 100 scale (0 no effect, 100 complete control)
[14] = Postemergence, 125 g ai/ha, 0 to 100 scale, 0 no effect, 100 complete control
[15] = 250 g ai/ha, scale 0 to 100, 0 is no effect, 100 is complete control

Row | SMILES | Plant response rating (scale of 0 to 100 where 0 is no effect and 100 is complete control), Nutsedge, Yellow (nutsedge, yellow) | Nutsedge, Yellow plant response rating (nutsedge, yellow) | Plant response rating, Nutsedge, Yellow (nutsedge, yellow; [6]) | Plant response rating, Nutsedge, Yellow (nutsedge, yellow; [7]) | Plant response rating, Velvetleaf (velvetleaf; [6]) | Johnsongrass plant response rating (johnsongrass; [8]) | Johnsongrass plant response rating (johnsongrass; [9]) | Plant response rating, Rice (rice) | Plant response rating (scale of 0 to 100 where 0 is no effect and 100 is complete control), Blackgrass (blackgrass) | Blackgrass plant response rating (blackgrass) | Plant response rating, Blackgrass (blackgrass; [6]) | Plant response rating, Blackgrass (blackgrass; [7]) | Foxtail, Giant plant response rating (foxtail, giant [2]; [12]) | Plant response rating (scale of 0 to 100 where 0 is no effect and 100 is complete control), Barnyardgrass (barnyardgrass) | Barnyardgrass plant response rating (barnyardgrass) | Plant response rating, Barnyardgrass (barnyardgrass; [6]) | Plant response rating, Barnyardgrass (barnyardgrass; [7]) | Plant response rating (scale of 0 to 100 where 0 is no effect and 100 is complete control), Crabgrass, Large (crabgrass, large) | Crabgrass, Large plant response rating (crabgrass, large) | Plant response rating, Crabgrass, Large (crabgrass, large; [6]) | also measured
1 | CCc1cc(-c2ccc(C(F)(F)F)cc2)nn1Cc1ccnc(C(F)(F)F)c1 [Compound 110] | 5 | 10 | 10 | 10 | 75 | 15 | 30 | 35 | 30 | 35 | 60 | 45 | 100 | 20 | 35 | 65 | 55 | 35 | 40 | 60 | Wheat plant response rating (wheat [1]; Postemergence, 500 g ai/ha, visual rating after approx. 10 days, 0 to 100 scale (0 no effect, 100 complete control)): 90; Wheat plant response rating (wheat [1]; [5]): 80; Plant response rating (scale of 0 to 100 where 0 is no effect and 100 is complete control), Velvetleaf (velvetleaf): 30; Velvetleaf plant response rating (velvetleaf; 62 g ai/ha): 50; Plant response rating, Velvetleaf (velvetleaf; [7]): 70; Plant response rating (scale of 0 to 100), Johnsongrass (johnsongrass; 250 g ai/ha): 95; Johnsongrass plant response rating (johnsongrass; [10]): 80; Foxtail, Giant plant response rating (foxtail, giant [2]; [11]): 100; Wheat plant response rating (wheat [3]; [11]): 80; Wheat plant response rating (wheat [3]; [12]): 100; Pigweed plant response rating (pigweed; [11]): 100; Pigweed plant response rating (pigweed; [12]): 100; Plant response rating (scale of 0 to 100), Foxtail, Giant (foxtail, giant [4]; 250 g ai/ha): 100; Foxtail, Giant plant response rating (foxtail, giant [4]; [8]): 98; Foxtail, Giant plant response rating (foxtail, giant [4]; [9]): 98; Foxtail, Giant plant response rating (foxtail, giant [4]; [10]): 100
2 | CCc1cc(C(=O)NOC(C)C)nn1Cc1ccnc(OC(F)F)c1 [Compound 126] | 5 | 5 | 15 | 5 | 70 | 40 | 85 | 20 | 5 | 5 | 25 | 20 | 100 | 5 | 5 | 40 | 10 | 5 | 10 | 60 | Wheat plant response rating (wheat [1]; [13]): 90; Wheat plant response rating (wheat [1]; [5]): 90; Plant response rating (scale of 0 to 100 where 0 is no effect and 100 is complete control), Velvetleaf (velvetleaf): 30; Velvetleaf plant response rating (velvetleaf; 62 g ai/ha): 25; Plant response rating, Velvetleaf (velvetleaf; [7]): 35; Plant response rating (scale of 0 to 100), Johnsongrass (johnsongrass; 250 g ai/ha): 98; Johnsongrass plant response rating (johnsongrass; [10]): 95; Foxtail, Giant plant response rating (foxtail, giant [2]; [11]): 100; Plant response rating, Crabgrass, Large (crabgrass, large; [7]): 15; Plant response rating (scale of 0 to 100), Lambsquarters (lambsquarters; Preemergence, 250 g ai/ha): 100; Lambsquarters plant response rating (lambsquarters; [8]): 85; Lambsquarters plant response rating (lambsquarters; [9]): 98; Lambsquarters plant response rating (lambsquarters; [10]): 100; Pigweed plant response rating (pigweed; [11]): 100; Pigweed plant response rating (pigweed; [12]): 100; Plant response rating (scale of 0 to 100), Foxtail, Giant (foxtail, giant [4]; 250 g ai/ha): 100; Foxtail, Giant plant response rating (foxtail, giant [4]; [8]): 45; Foxtail, Giant plant response rating (foxtail, giant [4]; [9]): 85; Foxtail, Giant plant response rating (foxtail, giant [4]; [10]): 98
3 | CCCc1cc(C(=O)NC(C)C)nn1Cc1cc(C(F)(F)F)nn1C [Compound 201] | 10 | 10 | 10 | 5 | 80 | 85 | 85 | 45 | 20 | 5 | 60 | 15 | 100 | 5 | 10 | 60 | 35 | 15 | 10 | 50 | Wheat plant response rating (wheat [1]; [14]): 90; Wheat plant response rating (wheat [1]; [13]): 100; Velvetleaf plant response rating (velvetleaf): 60; Plant response rating, Johnsongrass (johnsongrass; 125 g ai/ha, 13 to 15 days): 100; Johnsongrass plant response rating (johnsongrass; [15]): 100; Foxtail, Giant plant response rating (0 to 100 scale) (foxtail, giant [2]; 125 g ai/ha): 100; Wheat plant response rating (0 to 100 scale) (wheat [3]; 125 g ai/ha): 80; Wheat plant response rating (wheat [3]; [12]): 100; Plant response rating, Crabgrass, Large (crabgrass, large; [7]): 15; Pigweed plant response rating (0 to 100 scale) (pigweed; 125 g ai/ha): 100; Pigweed plant response rating (pigweed; [12]): 100; Foxtail, Giant plant response rating (foxtail, giant [4]; [8]): 100; Foxtail, Giant plant response rating (foxtail, giant [4]; [9]): 95; Plant response rating, Foxtail, Giant (foxtail, giant [4]; 125 g ai/ha, 13 to 15 days): 100; Foxtail, Giant plant response rating (foxtail, giant [4]; [15]): 100
4 | CCCc1cc(C(=O)NC2CC2)nn1Cc1cc(C(F)(F)F)nn1C [Compound 202] | 0 | 5 | 20 | 10 | 65 | 50 | 85 | 30 | 5 | 10 | 30 | 20 | 100 | 10 | 10 | 25 | 15 | 5 | 10 | 70 | Wheat plant response rating (wheat [1]; [14]): 60; Wheat plant response rating (wheat [1]; [13]): 80; Velvetleaf plant response rating (velvetleaf): 40; Plant response rating, Johnsongrass (johnsongrass; 125 g ai/ha, 13 to 15 days): 100; Johnsongrass plant response rating (johnsongrass; [15]): 100; Foxtail, Giant plant response rating (0 to 100 scale) (foxtail, giant [2]; 125 g ai/ha): 100; Wheat plant response rating (0 to 100 scale) (wheat [3]; 125 g ai/ha): 30; Wheat plant response rating (wheat [3]; [12]): 100; Plant response rating, Crabgrass, Large (crabgrass, large; [7]): 25; Pigweed plant response rating (0 to 100 scale) (pigweed; 125 g ai/ha): 100; Pigweed plant response rating (pigweed; [12]): 100; Foxtail, Giant plant response rating (foxtail, giant [4]; [8]): 100; Foxtail, Giant plant response rating (foxtail, giant [4]; [9]): 100; Plant response rating, Foxtail, Giant (foxtail, giant [4]; 125 g ai/ha, 13 to 15 days): 100; Foxtail, Giant plant response rating (foxtail, giant [4]; [15]): 100
